Assay results: paper PMC6707612, “Cyclic-di-GMP binds to histidine kinase RavS to control RavS-RavR phosphotransfer and regulates the bacterial lifestyle transition between virulence and swimming” (PLoS Pathogens, 2019)
Where “and” joins values, the source holds several entries; their conditions need not be identical. Equal values may be shown once.

Assays:
RavS^ΔN [1] = molecular target: T1, RavS^ΔN (Xanthomonas campestris pv. campestris, UniProt Q8P9A6); assay: in vitro RavS-RavR phosphotransfer assay (RavS~P level by autoradiography); format: biochemical
T1 sequence (Q8P9A6 352-697): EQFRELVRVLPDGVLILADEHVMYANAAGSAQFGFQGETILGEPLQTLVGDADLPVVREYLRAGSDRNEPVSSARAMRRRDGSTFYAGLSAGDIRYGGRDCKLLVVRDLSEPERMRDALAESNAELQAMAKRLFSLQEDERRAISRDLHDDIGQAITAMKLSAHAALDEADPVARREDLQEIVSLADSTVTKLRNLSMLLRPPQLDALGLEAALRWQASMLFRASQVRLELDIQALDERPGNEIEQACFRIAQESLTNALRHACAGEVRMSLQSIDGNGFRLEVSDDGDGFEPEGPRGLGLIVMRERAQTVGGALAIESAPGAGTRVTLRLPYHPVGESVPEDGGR
Experimental: (a) c-di-GMP enhances RavS-RavR phosphotransfer in vitro. A total of 5 μM RavS^ΔN was autophosphorylated for 15 min by the addition of 10 μCi [γ-^32P]ATP. A total of 15 μM RavR^ΔEAL or RavR^ΔEAL(D496A) was added and incubated for 30 min at 25°C. A total of 100 μM c-di-GMP was added if necessary. The reactions were terminated with 5× SDS loading buffer before autoradiography. The experiment was repeated three times. (b) Time course analyses of the impact of c-di-GMP on the velocity of RavS-RavR phosphotransfer. The autophosphorylation and phosphotransfer reactions were set as mentioned in (a). Various concentrations of c-di-GMP were added to the reactions and isotopic signals (band intensities) of RavS~P were measured after autoradiography. (c–d) c-di-GMP triggered an increase in RavS-RavR phosphotransfer in a dose-dependent manner. (c) Various concentrations of c-di-GMP (0, 5, 10, 15, 30, 50, 75 and 100 μM) were added to the RavS-RavR phosphotransfer reactions. (d) The phosphorylated level of RavS^ΔN~P was quantified by ImageJ and the EC50 value was estimated by Origin 8.5 software. In (b) and (d), the intensity of each data point is the average from three experimental repeats. (e) c-di-GMP triggered increase in RavS-RavR phosphotransfer is highly specific. […] (f) RavS specifically interacts with fl-c-di-GMP. The interaction between RavS^ΔTrM and various nucleotides, including fl-c-di-GMP, fl-cGMP and fl-c-di-AMP, were measured by microscale thermophoresis (MST). A total of 20 nM fluorescein-labelled nucleotides and increasing concentrations of proteins were incubated and measured by MST. The dissociation constant (Kd) was quantified to estimate the binding affinity. Each experiment was repeated three times.
An in vitro autophosphorylation assay was conducted as described in our previous study. Purified protein was incubated with 10 μM ATP containing 10 μCi [γ-^32P]ATP (PerkinElmer, USA) in the reaction buffer (50 mM Tris-HCl, pH 7.8, 25 mM NaCl, 25 mM KCl, 5 mM MgCl2, 2 mM DTT) for the indicated time at 28°C. If necessary, c-di-GMP was added to the mixture at the same time as ATP. For the phosphoryl transfer assay, purified RR protein or its derivative was added into the reaction mixture containing the phosphorylated HK. The autophosphorylation or phosphoryl transfer reaction was terminated by adding 5× SDS-PAGE loading buffer. Phosphorylated proteins were separated by 12% SDS-PAGE. After electrophoresis, gels were exposed to a phosphor screen (GE Healthcare) and the autoradiographic signals were detected by a Typhoon FLA7000 (GE Healthcare).

RavS^ΔN [2] = molecular target: T1, RavS^ΔN; assay: in vitro autophosphorylation assay; format: biochemical; conditions: 100 μM c-di-GMP, no RavR added
Experimental: (a) c-di-GMP enhances RavS-RavR phosphotransfer in vitro. A total of 5 μM RavS^ΔN was autophosphorylated for 15 min by the addition of 10 μCi [γ-^32P]ATP. A total of 15 μM RavR^ΔEAL or RavR^ΔEAL(D496A) was added and incubated for 30 min at 25°C. A total of 100 μM c-di-GMP was added if necessary. The reactions were terminated with 5× SDS loading buffer before autoradiography. The experiment was repeated three times. (b) Time course analyses of the impact of c-di-GMP on the velocity of RavS-RavR phosphotransfer. The autophosphorylation and phosphotransfer reactions were set as mentioned in (a). Various concentrations of c-di-GMP were added to the reactions and isotopic signals (band intensities) of RavS~P were measured after autoradiography. (c–d) c-di-GMP triggered an increase in RavS-RavR phosphotransfer in a dose-dependent manner. […] (d) The phosphorylated level of RavS^ΔN~P was quantified by ImageJ and the EC50 value was estimated by Origin 8.5 software. […] The interaction between RavS^ΔTrM and various nucleotides, including fl-c-di-GMP, fl-cGMP and fl-c-di-AMP, were measured by microscale thermophoresis (MST). A total of 20 nM fluorescein-labelled nucleotides and increasing concentrations of proteins were incubated and measured by MST. The dissociation constant (Kd) was quantified to estimate the binding affinity. […]

SMILES: Nc1nc2c(ncn2[C@@H]2O[C@@H]3COP(=O)(O)O[C@H]4[C@@H](O)[C@H](n5cnc6c(=O)[nH]c(N)nc65)O[C@@H]4COP(=O)(O)O[C@H]3[C@H]2O)c(=O)[nH]1 [c-di-GMP, Cyclic di-GMP]
- EC50 (RavS^ΔN [1]; 5 μM RavS^ΔN, 15 μM RavR^ΔEAL, 30 min at 25°C, RavS^ΔN~P level quantified by ImageJ, read-out: median effect concentration (EC50) on RavS-RavR phosphotransfer): 15.6 µM and ~15.6 µM
- T50: time that signal intensity of RavS~P decreased to half of the initiation stage (RavS^ΔN [1]; 15 μM c-di-GMP present, without c-di-GMP 38.2 min): 16.9 min
- effect on RavS^ΔN autophosphorylation (autokinase activity) (RavS^ΔN [2]): does not affect
